Measured values taken from PubChem BioAssay AID1888 (NMMLSC, 2009).
Active and inactive are the calls of the source. How the calls were made is not given here.

Biological target: Regulator of G-protein signaling 16 (Homo sapiens) (UniProt O15492)
Assay: RGS16-Galphao interaction modulators, dose response, biochemical, bead-based flow cytometry, multiplex (AID 1888)
Settings: RGS16-Galphao binding; for Ki: measured here: Ki for RGS16-Galphao binding

Regulator of G-protein signaling 16 (Homo sapiens), sequence (O15492 whole entry, looked up): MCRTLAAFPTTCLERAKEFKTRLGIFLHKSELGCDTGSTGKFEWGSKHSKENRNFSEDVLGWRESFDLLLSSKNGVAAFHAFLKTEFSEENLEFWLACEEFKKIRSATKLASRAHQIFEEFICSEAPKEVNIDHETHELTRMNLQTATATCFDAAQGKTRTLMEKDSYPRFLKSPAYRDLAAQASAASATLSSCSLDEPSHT

Compound | Ki [µM] | EC50
Cc1[nH]n(-c2ccccc2)c(=S)c1C=NCCCN=Cc1c(C)[nH]n(-c2ccccc2)c1=S | 7.13 | 
O=C(OCC1O[C@@H](OC(=O)c2cc(O)c(O)c(O)c2)[C@@H](OC(=O)c2cc(O)c(O)c(O)c2)[C@@H](OC(=O)c2cc(O)c(O)c(O)c2)[C@@H]1OC(=O)c1cc(O)c(O)c(O)c1)c1cc(O)c(O)c(O)c1 (some centres not stated) | 4.68 | 
CN(C)[C@@H]1C(=O)C(C(=O)NCN2CCCC2)=C(O)[C@@]2(O)C(=O)C3=C(O)c4c(O)cccc4[C@@](C)(O)C3CC12 (some centres not stated) | 5.93 | 7.31 µM
O=C1CCC(=O)N(O)CCCCCNC(=O)CCC(=O)N(O)CCCCCNC(=O)CCC(=O)N(O)CCCCCN1 | 1.82 | 
O=C1OCC2OC(O)C(O)C(O)C2OC(=O)c2cc(O)c(O)c(O)c2-c2c(O)c(O)c3oc(=O)c4c(c(O)c(O)c5oc(=O)c2c3c54)-c2c1cc(O)c(O)c2O (configuration not stated) | 13.4 | 
Cc1ccccc1-n1sc2cc(F)ccc2c1=O | 13 | 
O=C1CCCC2=C1C(c1cccs1)n1ncnc1N2 (configuration not stated) |  | > 30 µM (inactive)
CCN(CC)S(=O)(=O)c1cccc(C(=O)N/N=C/c2ccc(O)c(O)c2O)c1 | 4.14 | 
Cc1ccc(-n2sc3ccccc3c2=O)cc1S(=O)(=O)N1CCCCC1 | 1.62 | 
CC(NC(=O)c1sc2cc([N+](=O)[O-])ccc2c1Cl)C(C)(C)C (configuration not stated) | 2 | 
CCOC(=O)/C(C(=O)Nc1ccccc1Cl)=C1/NC(C)(C)Cc2ccccc21 |  | inactive
CCOC(=O)N=Nc1c(O)n(C)c2ccccc12 |  | > 30 µM (inactive)
COc1ccc(OC)c(CCNC(=O)Cn2sc3nc(C)cc(C)c3c2=O)c1 | 1.43 | 
Nc1c(C(=O)NCC2CCCO2)sc2nc3c(c(-c4ccco4)c12)CC/C3=C\c1ccco1 (configuration not stated) | 2.21 | 
Cc1ccccc1-n1c(-c2ccncc2)n[nH]c1=S | 6.29 | 
O=c1c2ccccc2sn1-c1cc(S(=O)(=O)N2CCOCC2)ccc1N1CCOCC1 | 0.56 | 
O=C(O)C[C@@H]1C(=O)O[C@@H]2C(COC(=O)c3cc(O)c(O)c(O)c3)O[C@@H](OC(=O)c3cc(O)c(O)c(O)c3)[C@@H](OC(=O)c3cc(O)c(O)c4c3[C@H]1[C@H](O)C(=O)O4)[C@H]2OC(=O)c1cc(O)c(O)c(O)c1 (some centres not stated) | 1.36 | 
O=c1c2ccccc2sn1-c1cc(S(=O)(=O)N2CCOCC2)ccc1N1CCCC1 | 1.83 | 
CCOC(=O)C1CCCN(C(=O)Cn2sc3nc(C)cc(C)c3c2=O)C1 (configuration not stated) | 1.53 | 
C/C(=N/NC(=O)c1cc(O)c(O)c(O)c1)c1ccc([N+](=O)[O-])cc1 | 15.8 | 

Compound | Ki [µM] | EC50
O=C(Cc1csc(N2CCOCC2)n1)N/N=C/c1ccc(O)c(O)c1O | 9.08 | 
CN1CCN(C2=C(Cl)C(=O)C(c3cnc(N4CCCCC4)s3)=C(Cl)C2=O)CC1 | 0.15 | 
CCOC(=O)C1=C(C)NC(C)=C(C(=O)OCCNC(=O)c2cccnc2)C1c1cccc([N+](=O)[O-])c1 (configuration not stated) |  | > 30 µM (inactive)
COc1ccc(Br)cc1/C=N/Nc1cccc(C(=O)O)c1 |  | > 30 µM (inactive)
O=[N+]([O-])c1ccc(Sc2cccc[n+]2[O-])c2nonc12 | 1.07 | 
CCCNC(=O)Cn1sc2nc(C)cc(C)c2c1=O | 1.42 | 
CN(C)c1ncc(C2=C(Cl)C(=O)C(N3CCCC3)=C(Cl)C2=O)s1 | 4.05 | 
Cc1ccc(NC(=O)Cn2sc3nc(C)cc(C)c3c2=O)c(Cl)c1 | 0.71 | 
CN(C)S(=O)(=O)c1cccc(-n2sc3ccccc3c2=O)c1 | 1.24 | 
NS(=O)(=O)c1ccc(CNC(=O)/C=C/c2ccco2)cc1 | 6.22 | 
CC(=O)N(O)CCCCCNC(=O)CCC(=O)N(O)CCCCCNC(=O)CCC(=O)N(O)CCCCCN | 1.5 | 
CC(=O)N1CC[n+]2c(-c3ccc([N+](=O)[O-])cc3)csc21 | 11 | 
O=c1c2ccccc2sn1-c1ccccc1 | 1.37 | 
CC(C)Sc1nc2ccc(N3C(=O)C4CCCCC4C3=O)cc2s1 (configuration not stated) |  | > 30 µM (inactive)
Cc1[nH]n(-c2ccccc2)c(=S)c1C=Nc1cccc([N+](=O)[O-])c1 | 1.29 | 
CCN1/C(=C/C(C)=C/c2sc3ccccc3[n+]2CC)Sc2ccccc21 | 7.85 | 
CC1(C)OC(=O)C(=Cc2ccc(-c3ccc(S(N)(=O)=O)cc3)o2)C(=O)O1 | 9.64 | 
CCC(=O)NC1=C(Cl)C(=O)C(NC(=O)CC)=C(Cl)C1=O | 0.68 | 
O=C(NCCCN1CCOCC1)c1sc2cc([N+](=O)[O-])ccc2c1Cl | 0.77 | 
O=c1[nH]c(=S)n(Cc2ccco2)c(O)c1C=NCc1cccs1 |  | > 30 µM (inactive)

Compound | Ki [µM] | EC50
Cc1cc(C)c2c(=O)n(CC(=O)Nc3cccc(F)c3)sc2n1 | 1.39 | 
COc1ccc(C2=CC(=O)C=CC2=O)cc1 | 3 | 
NS(=O)(=O)c1ccc(N/N=C/c2ccc(O)c(O)c2O)c([N+](=O)[O-])c1 | 1.35 | 1.66 µM
O=C(COc1ccccc1C(=O)N/N=C\c1ccc(O)c(O)c1)N/N=C/c1ccc(O)c(O)c1 | 3.24 | 
CCNc1ccc2noc3c2c1C(=O)c1ccccc1-3 | 23.7 | 
Cc1cc(Cl)ccc1N=c1ssnc1Cl | 7.19 | 
CC(=O)OCCCNc1cc(Sc2nc3ccccc3s2)c2nonc2c1[N+](=O)[O-] | 8.45 | 
CCOC(=O)c1sc(NC(=O)CSc2nnc(Cc3ccccc3)o2)c(C#N)c1C | 10.9 | 
CCC(=O)NC(c1ccc(C)cc1)c1cc([N+](=O)[O-])c2cccnc2c1O (configuration not stated) | 9.46 | 
CCOc1ccccc1-c1c2cc(O)c(=O)cc-2oc2cc(O)c(O)cc12 | 11.3 | 
COC(=O)CCC(=O)Nc1sc(C)c(C)c1C(N)=O | 5.32 | 
Cc1cccc(N2CCN(C(=O)Cn3sc4nc(C)cc(C)c4c3=O)CC2C)c1 (configuration not stated) | 1.05 | 
CCN=c1scc(C)n1/N=C/c1ccc(O)c(O)c1O | 15.1 | 
O=c1c2ccccc2sn1-c1ccc(S(=O)(=O)N2CCCC2)cc1 | 1.94 | 
CCN1/C(=C/C=C/C=C/c2sc3ccccc3[n+]2CC)Sc2ccccc21 | 5.41 | 
CN=c1scc(C)n1/N=C/c1ccc(O)c(O)c1O | 7.14 | 
O=C(O[C@@H]1OC2COC(=O)c3cc(O)c(O)c(O)c3-c3c(cc(O)c(O)c3O)C(=O)O[C@@H]([C@H]1O)[C@@H]2O)c1cc(O)c(O)c(O)c1 | 5.42 | 
COCCCNC(=O)c1ccc2c3c(onc13)-c1ccccc1C2=O | 4.61 | 
O=C1C(Cl)=C(N2CCCCC2)C(=O)C(Cl)=C1c1cnc(N2CCCCC2)s1 | 1.34 | 
Cc1cc(C)c2c(=O)n(CC(=O)Nc3ccc(Cl)cc3)sc2n1 | 1.42 | 
